According to patent US12344610B2, “APOL1 inhibitors and methods of use” (Maze Therapeutics, Inc., priority 2022, dated 2025):
pEC50: −log10 of the molar value.

Legend:
Format in all cases: cell-based
[1] = system: HEK293 clonal cell line overexpressing APOL1 G1; assay: APOL1 G1 HEK293 cell rescue assay (Example B3); settings: Homo sapiens, HEK293, HEK293 clonal line overexpressing APOL1 G1; geometric mean of at least 2 runs; † = single run; ¥ = concentration at 50% rescue estimated (no sigmoidal curve)
Outline: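 Rescue of cell death caused by APOL1 G1 overexpression was measured in a clonal HEK293 line. Compounds were tested in duplicate on one plate, and EC50s were geometric means across at least two runs on different days. Some values are estimated 50%-rescue concentrations where curve fitting failed.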

[2] = system: Trypanosoma brucei Lister 427 VSG221 with APOL1 G2 recombinant protein; assay: APOL1 G2 trypanosome cell rescue assay (Example B5); settings: Trypanosoma brucei, 20 h, read-out: APOL1 G2 Trypanosome Rescue EC50, Trypanosoma brucei Lister 427 VSG221 with APOL1 G2 recombinant protein, 20 hours, CellTiter-Glo; geometric mean of at least 2 assay runs; † = single assay run
Outline: (§1)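 Luminescent ATP read-out (CellTiter-Glo) of trypanosome viability after 20 h at 37° C. Bloodstream T. brucei Lister 427 VSG221, 250/well in modified HMI-9, were exposed to recombinant mature APOL1 (aa 28-398) from a 2 μg/mL addition, plus compound in 11-point 2-fold series.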

[3] = system: Trypanosoma brucei Lister 427 VSG221 with APOL1 G1 recombinant protein; assay: APOL1 G1 trypanosome cell rescue assay (Example B5); settings: Trypanosoma brucei, 20 h, read-out: APOL1 G1 Trypanosome Rescue EC50, Trypanosoma brucei Lister 427 VSG221 with APOL1 G1 recombinant protein, 20 hours, CellTiter-Glo; geometric mean of at least 2 assay runs; † = single assay run
Outline: as §1

Work on `NC1CN(C(=O)c2ccc(OCCN3CCC4(CC3)C(=O)Nc3ccc(Cl)cc34)cc2F)C1` [Compound 236, 1′-{2-[4-(3-aminoazetidine-1-carbonyl)-3-fluorophenoxy]ethyl}-5-chloro-1,2-dihydrospiro[indole-3,4′-piperidin]-2-one] yielded a pEC50 [1] of 6.87, a pEC50 [2] of 6.40 and a pEC50 [3] of 6.06.

For `CN1C(=O)C2(CCN(CCOc3ccc(S(=O)(=O)CCCS(C)(=O)=O)cc3)CC2)c2cc(Cl)ccc21` [Compound 23, 5-chloro-1′-{2-[4-(3-methanesulfonylpropanesulfonyl)phenoxy]ethyl}-1-methyl-1,2-dihydrospiro[indole-3,4′-piperidin]-2-one], the pEC50 [1] was 6.35, the pEC50 [2] was 6.95 and the pEC50 [3] was 6.21.

With `C[C@]1(O)C[C@@H](N2C(=O)CCc3cc(OCCN4CCC5(CC4)C(=O)Nc4ccc(Cl)cc45)cnc32)C1` [Compound 275, 5-chloro-1′-[2-({7-oxo-8-[(cis)-3-hydroxy-3-methylcyclobutyl]-5,6,7,8-tetrahydro-1,8-naphthyridin-3-yl}oxy)ethyl]-1,2-dihydrospiro[indole-3,4′-piperidin]-2-one] the pEC50 [1] was 7.20, the pEC50 [2] was 7.67 and the pEC50 [3] was 7.13.

For `O=C(c1c(F)cc(OCCN2CCC3(CC2)C(=O)Nc2ccc(Cl)cc23)cc1F)N1CCS(=O)(=O)CC1` [Compound 259, 4-[4-(2-{5-chloro-2-oxo-1,2-dihydrospiro[indole-3,4′-piperidin]-1′-yl}ethoxy)-2,6-difluorobenzoyl]-1λ^6-thiomorpholine-1,1-dione], the pEC50 [1] was 7.03, the pEC50 [2] was 7.59 and the pEC50 [3] was 7.04.

`C[C@@H](COc1ccc(S(C)(=O)=O)c(C(F)F)c1)N1CCC2(CC1)C(=O)Nc1ccc(Cl)cc12` (single isomer, unassigned) [Compound 210] showed a pEC50 [1] of 6.82, a pEC50 [2] of 7.66 and a pEC50 [3] of 7.15.

For `C[C@]1(O)C[C@@H](N2C(=O)CCc3cc(OCCN4CCC5(CC4)C(=O)Nc4ccc(C(F)F)cc45)cnc32)C1` [Compound 274, 5-(difluoromethyl)-1′-[2-({7-oxo-8-[(cis)-3-hydroxy-3-methylcyclobutyl]-5,6,7,8-tetrahydro-1,8-naphthyridin-3-yl}oxy)ethyl]-1,2-dihydrospiro[indole-3,4′-piperidin]-2-one], the pEC50 [1] was 7.00, the pEC50 [2] was 7.76 and the pEC50 [3] was 7.23.

`CS(=O)(=O)c1ccc(OCCN2CCC3(CC2)C(=O)N(CCO)c2ccc(C#N)cc23)cc1C(F)F` [Compound 266, 1′-{2-[3-(difluoromethyl)-4-methanesulfonylphenoxy]ethyl}-1-(2-hydroxyethyl)-2-oxo-1,2-dihydrospiro[indole-3,4′-piperidine]-5-carbonitrile] was tested, and the pEC50 [1] was 6.45, the pEC50 [2] was 7.11 and the pEC50 [3] was 6.39.

Work on `O=C1Nc2ccc(Cl)cc2C12CCN(CCOc1ccc(S(=O)(=O)C3(CO)CC3)cc1)CC2` [Compound 225, 5-chloro-1′-[2-(4-{[1-(hydroxymethyl)cyclopropyl]sulfonyl}phenoxy)ethyl]-1,2-dihydrospiro[indole-3,4′-piperidin]-2-one] yielded a pEC50 [1] of 7.29, a pEC50 [2] of 7.89 and a pEC50 [3] of 7.29.

With `CS(=O)(=O)C1CN(C(=O)c2ccc(OCCN3CCC4(CC3)C(=O)Nc3ccc(Cl)cc34)cc2F)C1` [Compound 233, 5-chloro-1′-{2-[3-fluoro-4-(3-methanesulfonyl-azetidine-1-carbonyl)phenoxy]ethyl}-1,2-dihydrospiro[indole-3,4′-piperidin]-2-one] the pEC50 [1] was 6.61, the pEC50 [2] was 7.39 and the pEC50 [3] was 6.87.

With `CS(=O)(=O)NC1CN(C(=O)c2ccc(OCCN3CCC4(CC3)C(=O)Nc3ccc(Cl)cc34)cc2F)C1` [Compound 237, N-{1-[4-(2-{5-chloro-2-oxo-1,2-dihydrospiro[indole-3,4′-piperidin]-1′-yl}ethoxy)-2-fluorobenzoyl]azetidin-3-yl} methanesulfonamide] the pEC50 [1] was < 5.49, the pEC50 [2] was 7.24 and the pEC50 [3] was 6.71.
